Reference: ChEMBL document CHEMBL6127028, “Design and synthesis of TH19P01-Camptothecin based hybrid peptides inducing effective anticancer responses on sortilin positive cancer cells” (Bioorg Med Chem, 2024)
≈ marks a conversion by molar mass, not a printed value. Calls of active or inactive are those of the source. No cut-off for these calls is given here. Where a SMILES comes first, the peptide text is derived from it. [ ]: non-standard residue; d: D form. The star is where a group is joined. Succinyl(20-O-(20S)-CPT) = CC[C@@]1(OC(=O)CCC(=O)*)C(=O)OCc2c1cc1n(c2=O)Cc2cc3ccccc3nc2-1; Dnp = O=[N+]([O-])c1ccc(*)c([N+](=O)[O-])c1; DEAC = CCN(CC)c1ccc2cc(C(=O)*)c(=O)oc2c1; Nle = CCCC[C@H](N)C(=O)O

Experiments:
MDA-MB-231 [1] = assay: Cytostatic activity against human MDA-MB-231 cells overexpressing SORT1 assessed as reduction in cell viability incubated for 72 hrs by MTT assay; type: functional, cell-based; conditions: MDA-MB-231, 72 h
[2] = Drug uptake in human MDA-MB-231 cells assessed as increase in blue fluorescence intensity at 10 uM by SYBR Green I staining based live cell imaging analysis; type: ADME; conditions: mda-mb-231, 10 µM, TDE = time-dependent effect, time 2-12 hrs
[3] = Prodrug conversion in 5% human serum assessed as CPT release by measuring increase in fluorescence intensity at 50 uM measured at 0 hrs by fluorescence spectrophotometric analysis; type: ADME, cell-free
[4] = Prodrug conversion in 5% human serum assessed as CPT release by measuring increase in fluorescence intensity at 50 uM measured for 6 days by fluorescence spectrophotometric analysis; type: ADME, cell-free; conditions: 144 h, time 6 day
[5] = Prodrug conversion in human MDA-MB-231 cells overexpressing SORT1 assessed as CPT release by measuring increase in fluorescence intensity at 1.5 uM measured for 120 hrs by fluorescence based analysis; type: ADME, cell-based; conditions: mda-mb-231, 120 h
MDA-MB-231 [6] = assay: Anti-proliferative activity against human MDA-MB-231 cells assessed as inhibition of cell proliferation at 0.5XIC50 to 1XIC50 measured after 36 to 72 hrs by time-kill curve analysis; type: functional, cell-based; conditions: time 36-72 hrs
[7] = Induction of hemolysis in mouse erythrocytes assessed as hemolysis rate at 30 uM incubated for 4 hrs; type: toxicity, cell-based, Erythrocyte; conditions: read-out: Activity
[8] = Drug uptake in human MDA-MB-231 cells assessed as increase in blue fluorescence intensity at 10 uM measured after 2 to 12 hrs by SYBR Green I staining based live cell imaging analysis; type: ADME; conditions: mda-mb-231, 10 µM, time 2-12 hrs
[9] = Cytostatic activity against HEK293T cells assessed as reduction in cell viability incubated for 72 hrs by MTT assay; type: toxicity, cell-based, HEK-293T; conditions: human
MDA-MB-231 [10] = assay: Anti-proliferative activity against human MDA-MB-231 cells assessed as inhibition of cell proliferation at 1XIC50 measured at <36 hrs by time-kill curve analysis; type: functional
4T1 [11] = assay: Anti-migration activity against mouse 4T1 cells assessed as cell motility at 1.5 uM incubated for 2 hrs followed by PBS washing and incubation in complete medium for 24 hrs by wound healing assay (reference value: 68.9%); type: functional
Erythrocyte [12] = assay: Induction of hemolysis in mouse erythrocytes at 0.03 to 30 uM incubated for 4 hrs; type: toxicity, cell-based; conditions: dose 0.03-30 µM
[13] = Aqueous solubility of the compound in water by UV/Vis spectrophotometry relative to free camptothecin; type: physicochemical; conditions: buffer
MDA-MB-231 [14] = assay: Anti-migration activity against human MDA-MB-231 cells assessed as cell motility at 1.5 uM incubated for 2 hrs followed by PBS washing and incubation in complete medium for 24 hrs by wound healing assay (reference value: 55.3%); type: functional
4T1 [15] = assay: Cytostatic activity against mouse 4T1 cells expressing low SORT1 assessed as reduction in cell viability incubated for 72 hrs by MTT assay; type: functional, cell-based; conditions: 4T1, 72 h
[16] = Cytostatic activity against mouse L929 cells assessed as reduction in cell viability incubated for 72 hrs by MTT assay; type: toxicity, cell-based
MDA-MB-231 [17] = assay: Anti-proliferative activity against human MDA-MB-231 cells assessed as inhibition of cell proliferation at 1XIC50 measured after 72 hrs by time-kill curve analysis; type: functional
[18] = Induction of hemolysis in mouse erythrocytes assessed as hemolysis rate at 0.3 uM incubated for 4 hrs; type: toxicity, cell-based, Erythrocyte; conditions: read-out: Activity
MDA-MB-231 [19] = assay: Anti-proliferative activity against human MDA-MB-231 cells assessed as inhibition of cell proliferation at 1.5 uM measured for 0 to 72 hrs by time-kill curve analysis; type: functional; conditions: time 0-72 hrs
MDA-MB-231 [20] = assay: Anti-migration activity against human MDA-MB-231 cells assessed as cell motility at 1.5 uM incubated for 2 hrs in presence of TH19P01 followed by PBS washing and incubation in complete medium for 24 hrs by wound healing assay (reference value: 55.3%); type: functional
Erythrocyte [21] = assay: Induction of hemolysis in mouse erythrocytes at >3 uM incubated for 4 hrs in presence of TH19P01; type: toxicity, cell-based
4T1 [22] = assay: Cytostatic activity against mouse 4T1 cells expressing low SORT1 assessed as reduction in cell viability incubated for 72 hrs in presence of TH19P01 by MTT assay; type: functional, cell-based; conditions: 4T1, 72 h
[23] = Drug uptake in human MDA-MB-231 cells assessed as increase in blue fluorescence intensity at 10 uM measured after 2 to 12 hrs in presence of TH19P01 by SYBR Green I staining based live cell imaging analysis; type: ADME; conditions: mda-mb-231, 10 µM, time 2-12 hrs
MDA-MB-231 [24] = assay: Cytostatic activity against human MDA-MB-231 cells overexpressing SORT1 assessed as reduction in cell viability incubated for 72 hrs in presence of TH19P01 by MTT assay; type: functional, cell-based; conditions: MDA-MB-231, 72 h
4T1 [25] = assay: Anti-migration activity against mouse 4T1 cells at 1.5 uM incubated for 2 hrs in presence of TH19P01 followed by PBS washing and incubation in complete medium for 24 hrs by wound healing assay; type: functional, cell-based
MDA-MB-231 [26] = assay: Anti-proliferative activity against human MDA-MB-231 cells assessed as inhibition of cell proliferation at 1XIC50 measured after 72 hrs in presence of TH19P01 by time-kill curve analysis; type: functional
MDA-MB-231 [27] = assay: Anti-proliferative activity against human MDA-MB-231 cells assessed as inhibition of cell proliferation at 1XIC50 measured for 0 to 72 hrs in presence of TH19P01 by time-kill curve analysis; type: functional, cell-based; conditions: time 0-72 hrs
MDA-MB-231 [28] = assay: Anti-proliferative activity against human MDA-MB-231 cells assessed as inhibition of cell proliferation at 1XIC50 measured for 0 to 72 hrs by time-kill curve analysis; type: functional, cell-based; conditions: time 0-72 hrs
[29] = Aqueous solubility of the compound in water by UV/Vis spectrophotometry; type: physicochemical

## CCCC[C@H](NC(=O)[C@H](CC(N)=O)NC(=O)[C@H](CCCNC(=N)N)NC(=O)[C@@H](NC(=O)CNC(=O)[C@H](C)NC(=O)[C@H](CCCCNC(=O)c1cc2ccc(N(CC)CC)cc2oc1=O)NC(=O)[C@H](C)NC(=O)[C@H](CCCNC(=N)N)NC(=O)[C@@H](NC(=O)CNC(C)=O)C(C)C)C(C)C)C(=O)N[C@@H](Cc1ccccc1)C(=O)N[C@@H](CCCCNC(C)=O)C(=O)N[C@@H](CO)C(=O)N[C@@H](CCC(=O)O)C(=O)N[C@@H](CO)C(=O)N[C@@H](Cc1ccc(O)cc1)C(N)=O (Ac-GVRAK(DEAC)AGVRN[Nle]FK(Ac)SESY-NH2)
MDA-MB-231 [1]
  IC50: > 100000 nM
[2]
  Drug uptake: Tde

## CCCC[C@H](NC(=O)[C@H](CC(N)=O)NC(=O)[C@H](CCCNC(=N)N)NC(=O)[C@@H](NC(=O)CNC(=O)[C@H](C)NC(=O)[C@H](CCCCNC(=O)CCC(=O)O[C@]1(CC)C(=O)OCc2c1cc1n(c2=O)Cc2cc3ccccc3nc2-1)NC(=O)[C@H](CCCCNc1ccc([N+](=O)[O-])cc1[N+](=O)[O-])NC(=O)[C@H](C)NC(=O)[C@H](CCCNC(=N)N)NC(=O)[C@@H](NC(=O)CNC(C)=O)C(C)C)C(C)C)C(=O)N[C@@H](Cc1ccccc1)C(=O)N[C@@H](CCCCNc1ccc([N+](=O)[O-])cc1[N+](=O)[O-])C(=O)N[C@@H](CCCCNC(=O)CCC(=O)O[C@]1(CC)C(=O)OCc2c1cc1n(c2=O)Cc2cc3ccccc3nc2-1)C(=O)N[C@@H](CO)C(=O)N[C@@H](CCC(=O)O)C(=O)N[C@@H](CO)C(=O)N[C@@H](Cc1ccc(O)cc1)C(N)=O (Ac-GVRAK(Dnp)K(Succinyl(20-O-(20S)-CPT))AGVRN[Nle]FK(Dnp)K(Succinyl(20-O-(20S)-CPT))SESY-NH2)
MDA-MB-231 [1]
  IC50: 1520 nM
[3]
  Drug metabolism: Metabolite_Notdetected
[4]
  Drug metabolism: Metabolite_Detected
[5]
  Drug metabolism: Metabolite_Detected

## CCCC[C@H](NC(=O)[C@H](CC(N)=O)NC(=O)[C@H](CCCNC(=N)N)NC(=O)[C@@H](NC(=O)CNC(=O)[C@H](C)NC(=O)[C@H](CCCCNC(=O)CCC(=O)O[C@]1(CC)C(=O)OCc2c1cc1n(c2=O)Cc2cc3ccccc3nc2-1)NC(=O)[C@H](C)NC(=O)[C@H](CCCNC(=N)N)NC(=O)[C@@H](NC(=O)CNC(C)=O)C(C)C)C(C)C)C(=O)N[C@@H](Cc1ccccc1)C(=O)N[C@@H](CCCCNC(=O)CCC(=O)O[C@]1(CC)C(=O)OCc2c1cc1n(c2=O)Cc2cc3ccccc3nc2-1)C(=O)N[C@@H](CO)C(=O)N[C@@H](CCC(=O)O)C(=O)N[C@@H](CO)C(=O)N[C@@H](Cc1ccc(O)cc1)C(N)=O (Ac-GVRAK(Succinyl(20-O-(20S)-CPT))AGVRN[Nle]FK(Succinyl(20-O-(20S)-CPT))SESY-NH2)
MDA-MB-231 [6]
  Activity: Dose-Dependent Effect
[7]
  hemolysis at 4 h, 30 µM: < 5%
[8]
  Drug uptake: Active
[9]
  IC50 at 72 h: 11100 nM
MDA-MB-231 [10]
  inhibition (INH): <10%
4T1 [11]
  Activity: 58.6%
MDA-MB-231 [1]
  IC50: 1470 nM
Erythrocyte [12]
  Activity: Toxic
[13]
  fold change (FC): 90
MDA-MB-231 [14]
  Activity: 13.3%
4T1 [15]
  IC50: 2050 nM
[16]
  IC50 at 72 h: > 100000 nM
MDA-MB-231 [17]
  inhibition (INH): 45.3%
[18]
  hemolysis at 4 h, 0.3 µM: 1.5%

## CCCC[C@H](NC(=O)[C@H](CC(N)=O)NC(=O)[C@H](CCCNC(=N)N)NC(=O)[C@@H](NC(=O)CNC(=O)[C@H](C)NC(=O)[C@H](CCCCN)NC(=O)[C@H](C)NC(=O)[C@H](CCCNC(=N)N)NC(=O)[C@@H](NC(=O)CNC(C)=O)C(C)C)C(C)C)C(=O)N[C@@H](Cc1ccccc1)C(=O)N[C@@H](CCCCN)C(=O)N[C@@H](CO)C(=O)N[C@@H](CCC(=O)O)C(=O)N[C@@H](CO)C(=O)N[C@@H](Cc1ccc(O)cc1)C(N)=O (Ac-GVRAKAGVRN[Nle]FKSESY-NH2)
[9]
  IC50 at 72 h: > 100000 nM
4T1 [11]
  Activity: 67.9%
MDA-MB-231 [1]
  IC50: > 100000 nM
Erythrocyte [12]
  Activity: Toxic
MDA-MB-231 [14]
  Activity: 46.3%
4T1 [15]
  IC50: > 100000 nM
[16]
  IC50 at 72 h: > 100000 nM
MDA-MB-231 [19]
  inhibition at 1.5 µM: < 10%

## CC[C@@]1(O)C(=O)OCc2c1cc1n(c2=O)Cc2cc3ccccc3nc2-1 [CAMPTOTHECIN]
MDA-MB-231 [20]
  Activity: 37.7%
Erythrocyte [21]
  Activity: Toxic
4T1 [22]
  IC50: < 32 nM
[23]
  Drug uptake: Active
[9]
  IC50 at 72 h: < 10 nM
MDA-MB-231 [24]
  IC50: 720 nM
4T1 [11]
  Activity: 69.2%
4T1 [25]
  Activity: Active
MDA-MB-231 [1]
  IC50: 630 nM
Erythrocyte [12]
  Activity: Toxic
MDA-MB-231 [14]
  Activity: 44.6%
4T1 [15]
  IC50: 30 nM
[16]
  IC50 at 72 h: 15700 nM
MDA-MB-231 [26]
  inhibition (INH): 50.8%
MDA-MB-231 [27]
  Activity: Active
MDA-MB-231 [28]
  Activity: Active
MDA-MB-231 [17]
  inhibition (INH): 52.8%
[29]
  solubility: 3.6 µM (≈ 1.25 µg/mL)
